Source: PubChem BioAssay (NCI)
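Five concentrations, 48 hours, 96-well plates. GI50 marks 50% less growth. TGI marks complete inhibition of growth.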

Assays:
Assay in all cases: NCI tumour cell line growth inhibition, 48 h
ACHN renal = system: ACHN renal
DU-145 prostate = system: DU-145 prostate
HT29 colon = system: HT29 colon
NCI-H460 lung = system: NCI-H460 lung
NCI-H522 lung = system: NCI-H522 lung
OVCAR-4 ovarian = system: OVCAR-4 ovarian
PC-3 prostate = system: PC-3 prostate
SF-295 CNS = system: SF-295 CNS
SF-268 CNS = system: SF-268 CNS
UACC-62 melanoma = system: UACC-62 melanoma

For `CCCCSCCC(N)P(=O)(O)O` (stereo unspecified), the TGI (ACHN renal) was > 100 µM, the TGI (DU-145 prostate) was > 100 µM and the TGI (HT29 colon) was > 100 µM. For the same molecule, the TGI (NCI-H460 lung) was > 100 µM, the TGI (NCI-H522 lung) was > 100 µM and the TGI (OVCAR-4 ovarian) was > 100 µM. For the same molecule, the TGI (PC-3 prostate) was > 100 µM and the TGI (SF-295 CNS) was > 100 µM.

With `OC1CCSc2ccccc21` (stereo unspecified) the TGI (ACHN renal) was > 100 µM, the TGI (HT29 colon) was > 100 µM and the TGI (NCI-H460 lung) was > 100 µM. For the same molecule, the TGI (NCI-H522 lung) was > 100 µM, the TGI (OVCAR-4 ovarian) was > 100 µM and the TGI (SF-268 CNS) was > 100 µM. The TGI (UACC-62 melanoma) was > 100 µM.

In the case of `CS(=O)(=O)Nc1ccc(NCc2cnc3ccc4[nH]cccc4c23)cc1`, the TGI (ACHN renal) is reported as > 100 µM, the TGI (DU-145 prostate) is reported as 71.3 µM and the TGI (HT29 colon) is reported as > 100 µM. The TGI (NCI-H460 lung) was > 100 µM, the TGI (NCI-H522 lung) was 42.3 µM and the TGI (OVCAR-4 ovarian) was 78.4 µM. The TGI (PC-3 prostate) was 48.1 µM, the TGI (SF-268 CNS) was 61.8 µM and the TGI (SF-295 CNS) was > 100 µM. The TGI (UACC-62 melanoma) was 30.7 µM.

In the case of `COc1ccc(-n2nc(C(=O)c3ccccc3)c3nn4c(=O)cc(-c5ccccc5)nc4nc32)cc1`, the GI50 (ACHN renal) is reported as 45.9 µM, the TGI (ACHN renal) is reported as > 100 µM and the GI50 (DU-145 prostate) is reported as 49.2 µM. For the same molecule, the TGI (DU-145 prostate) was > 100 µM, the GI50 (HT29 colon) was 32.2 µM and the TGI (HT29 colon) was > 100 µM. The GI50 (NCI-H460 lung) was 32.4 µM, the TGI (NCI-H460 lung) was > 100 µM and the GI50 (NCI-H522 lung) was 23.1 µM. The TGI (NCI-H522 lung) was 81.2 µM, the GI50 (OVCAR-4 ovarian) was 30.5 µM and the TGI (OVCAR-4 ovarian) was > 100 µM. The GI50 (PC-3 prostate) was 50.5 µM, the TGI (PC-3 prostate) was > 100 µM and the GI50 (SF-268 CNS) was 39.1 µM. The TGI (SF-268 CNS) was > 100 µM, the GI50 (SF-295 CNS) was 28.9 µM and the TGI (SF-295 CNS) was 85.2 µM. The GI50 (UACC-62 melanoma) was 28.4 µM and the TGI (UACC-62 melanoma) was 97.6 µM.

For `Cc1cc(=O)[nH]c(S(=O)(=O)NC(=O)Nc2cccc(Cl)c2)n1`, the TGI (ACHN renal) was > 100 µM, the TGI (DU-145 prostate) was > 100 µM and the TGI (HT29 colon) was > 100 µM. For the same molecule, the TGI (NCI-H460 lung) was > 100 µM, the TGI (NCI-H522 lung) was > 100 µM and the TGI (OVCAR-4 ovarian) was > 41.7 µM. For the same molecule, the TGI (PC-3 prostate) was > 100 µM, the TGI (SF-268 CNS) was > 100 µM and the TGI (SF-295 CNS) was > 100 µM. The TGI (UACC-62 melanoma) was > 100 µM.

`CN(C)c1ccc(/C=C2\C[C@H]3[C@@H]4CC=C5C[C@@H](O)CC[C@]5(C)[C@H]4CC[C@]3(C)[C@H]2O)cc1` was tested, and the TGI (ACHN renal) was 30.7 µM, the TGI (DU-145 prostate) was > 100 µM and the TGI (HT29 colon) was 27.5 µM. It also gave a TGI (NCI-H460 lung) of 28.9 µM, a TGI (OVCAR-4 ovarian) of 98.6 µM and a TGI (PC-3 prostate) of 25.8 µM. The TGI (SF-268 CNS) was 34.8 µM, the TGI (SF-295 CNS) was 44.8 µM and the TGI (UACC-62 melanoma) was 30.2 µM.

`CC(NC(=O)c1ccc(OP(=O)(OCc2ccc([N+](=O)[O-])o2)N(C)CCCCCl)cc1)c1ccc(OCC2CCCCC2)c(C(N)=O)c1` (stereo unspecified) was tested, and the TGI (ACHN renal) was > 35.4 µM, the TGI (DU-145 prostate) was > 29 µM and the TGI (HT29 colon) was 7.85 µM. For the same molecule, the TGI (NCI-H460 lung) was 14.5 µM, the TGI (NCI-H522 lung) was 6.44 µM and the TGI (OVCAR-4 ovarian) was 17.7 µM. For the same molecule, the TGI (PC-3 prostate) was 49.1 µM, the TGI (SF-268 CNS) was 10.9 µM and the TGI (SF-295 CNS) was > 32.4 µM. For the same molecule, the TGI (UACC-62 melanoma) was 7.39 µM.

With `O=S(C(c1ccccc1)=P(c1ccccc1)(c1ccccc1)c1ccccc1)c1ccc(Cl)cc1` (stereo unspecified) the TGI (ACHN renal) was 60 µM, the TGI (DU-145 prostate) was 42.7 µM and the TGI (HT29 colon) was > 100 µM. For the same molecule, the TGI (NCI-H460 lung) was > 100 µM, the TGI (NCI-H522 lung) was 38.6 µM and the TGI (OVCAR-4 ovarian) was 98.3 µM. For the same molecule, the TGI (PC-3 prostate) was 68.4 µM, the TGI (SF-268 CNS) was 87.9 µM and the TGI (SF-295 CNS) was > 100 µM.

Work on `CN(CCCNC(=O)c1nn(-c2ccccc2)c2c1Cc1ccccc1-2)CCCNC(=O)c1nn(-c2ccccc2)c2c1Cc1ccccc1-2` yielded a TGI (ACHN renal) of 3.12 µM, a TGI (DU-145 prostate) of 3.21 µM and a TGI (HT29 colon) of 3.42 µM. The TGI (NCI-H460 lung) was 3.26 µM, the TGI (NCI-H522 lung) was 2.63 µM and the TGI (OVCAR-4 ovarian) was 1.85 µM. For the same molecule, the TGI (PC-3 prostate) was 3.09 µM, the TGI (SF-268 CNS) was 3.31 µM and the TGI (UACC-62 melanoma) was 3.26 µM.

In the case of `Oc1ccc(Cl)cc1C1=Nn2c(COc3ccc4c(c3)CCCC4)nnc2SC1`, the TGI (ACHN renal) is reported as 49.7 µM, the TGI (DU-145 prostate) is reported as 40 µM and the TGI (NCI-H460 lung) is reported as 30.9 µM. The TGI (NCI-H522 lung) was 21.6 µM, the TGI (OVCAR-4 ovarian) was 13.8 µM and the TGI (PC-3 prostate) was 26.7 µM. The TGI (SF-268 CNS) was 35 µM, the TGI (SF-295 CNS) was 29.7 µM and the TGI (UACC-62 melanoma) was 25.4 µM.
